Assay results from patent US9169241B2, “Quinolinyloxyphenylsulfonamides” (Max-Planck-Gesellschaft Zur Forderung der Wissenschaften …, priority 2009, dated 2015).
pIC50: −log10 of the molar value. Read-outs that look alike come from different tables or passages of the source.

Legend:
indicated cell line = test: Wound healing migration assay (Table IV); assay type: cell-based; details: compounds at 12.5, 6.25, 3.125 μM, 48 h-72 h
Outline: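 Cells seeded at 150000/24 well, grown to monolayer overnight, scratched with a pipette tip, then treated with compound at 12.5, 6.25 or 3.125 μM versus DMSO. Stopped by crystal violet fixation at 48-72 h once control wounds closed; IC50 taken as 50% wound size between t0 and t48 or t72.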

U118 = test: Cell vitality assay (ATP assay, CellTiter-Glo); assay type: cell-based; details: U118, 72 h; Table IIa; read-out: IC50 ATP-Assay after 72 h U118
Outline: (§1)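 1000 cells/well incubated 72 h with compound at 12.5 down to 0.195 μM (twofold steps) or DMSO control. Viability measured as cellular ATP by CellTiter-Glo luminescence; IC50 taken as the concentration giving 50% of the DMSO-control ATP level.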

Hs578T [1] = test: Cell vitality assay (ATP assay, CellTiter-Glo); assay type: cell-based; details: Homo sapiens, Hs-578T; HS578T cell line, 72 h; Table Ib; read-out: IC50 ATP-Assay HS578T after 72 h
Outline: as §1

A172 = test: Cell vitality assay (ATP assay, CellTiter-Glo); assay type: cell-based; details: Homo sapiens, A 172; A172, 72 h; Table IIa; read-out: IC50 ATP-Assay after 72 h A172
Outline: as §1

SF126 = test: Cell vitality assay (ATP assay, CellTiter-Glo); assay type: cell-based; details: Homo sapiens, SF-126; SF126, 72 h; Table IIa; read-out: IC50 ATP-Assay after 72 h SF126
Outline: as §1

Hs578T [2] = test: Matrigel outgrowth assay/branching assay; assay type: cell-based; details: Homo sapiens, Hs-578T; HS578T cell line; Table Ib; read-out: Total branching inhibition in Matrigel HS578T
Outline: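 Read-out: microscopic images of invasive branching structures at 48 h, 72 h and 96 h. Cells sat on a 3 mg/ml Matrigel layer (set 1 h, 37° C) with compound at 3.125, 1.56 and 0.78 μM or DMSO. A concentration counts as positive only with complete branching inhibition.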

[3] = Homo sapiens, A 172, A172 cells, read-out: IC50 Wound healing Assay A172
[4] = Homo sapiens, SF-126, SF126 cells, read-out: IC50 Wound healing Assay SF126
[5] = U118 cells, read-out: IC50 Wound healing Assay U118

SMILES | pIC50 (indicated cell line; [3]) | pIC50 (indicated cell line; [4]) | pIC50 (indicated cell line; [5]) | melting point [°C] | pIC50 (U118) | pIC50 (Hs578T [1]) | pIC50 (A172) | pIC50 (SF126) | pIC50 (Hs578T [2]) | pIC50 (indicated cell line; Homo sapiens, C8161 cells, read-out: IC50 Wound healing Assay C8161) | pIC50 (indicated cell line; SF763 cells, read-out: IC50 Wound healing Assay SF763)
COc1cc2c(Oc3ccc(NS(=O)(=O)c4c(Cl)cccc4Cl)cc3F)ccnc2cc1OCCCN1CCCC(C)C1 (centres unmarked) [Example 51, 2,6-Dichloro-N-(3-fluoro-4-{6-methoxy-7-[3-(3-methyl-piperidin-1-yl)-propoxy]-quinolin-4-yloxy}-phenyl)-benzenesulfonamide] | ≥ 4.90 | ≥ 4.90 | ≥ 4.90 | 119 to 121 | ≥ 4.90 | ≥ 4.90 | ≥ 4.90 | ≥ 4.90 | ≥ 5.00 |  | 
COc1cc2c(Oc3ccc(NS(=O)(=O)c4ccccc4OC(F)(F)F)cc3F)ccnc2cc1OCCCN1CCCC(C)C1 (centres unmarked) [Example 45, N-(3-Fluoro-4-{6-methoxy-7-[3-(3-methyl-piperidin-1-yl)-propoxy]-quinolin-4-yloxy}-phenyl)-2-trifluoromethoxy-benzenesulfonamide] | ≥ 4.90 | ≥ 4.90 | ≥ 4.90 | 128 to 130 | ≥ 4.90 | ≥ 4.90 | ≥ 4.90 | ≥ 4.90 | ≥ 5.00 |  | 
COc1cc2c(Oc3ccc(NS(=O)(=O)c4ccc(F)c(F)c4F)cc3F)ccnc2cc1OCCCN1CCCC(C)C1 (centres unmarked) [Example 49, 2,3,4-Trifluoro-N-(3-fluoro-4-{6-methoxy-7-[3-(3-methyl-piperidin-1-yl)-propoxy]-quinolin-4-yloxy}-phenyl)-benzenesulfonamide] | ≥ 4.90 | ≥ 4.90 | ≥ 4.90 | 134 to 136 | ≥ 4.90 | ≥ 4.90 | ≥ 4.90 | ≥ 4.90 | 4.60 to 5.00 |  | 
COc1cc2c(Oc3ccc(NS(=O)(=O)c4c(Cl)cccc4Cl)cc3F)ccnc2cc1OCCCN1CCCCC1 [Example 6, 2,6-Dichloro-N-{3-fluoro-4-[6-methoxy-7-(3-piperidin-1-yl-propoxy)-quinolin-4-yloxy]-phenyl}-benzenesulfonamide] | ≥ 4.90 | ≥ 4.90 | ≥ 4.90 | 206 to 208 | ≥ 4.90 | ≥ 4.90 | ≥ 4.90 | ≥ 4.90 | ≥ 5.00 |  | 
COc1cc2c(Oc3ccc(NS(=O)(=O)c4c(Cl)cccc4Cl)cc3F)ccnc2cc1OCCN1CCOCC1 [Example 104, 2,6-Dichloro-N-{3-fluoro-4-[6-methoxy-7-(2-morpholin-4-yl-ethoxy)-quinolin-4-yloxy]-phenyl}-benzenesulfonamide] | 4.30 to 4.90 | ≥ 4.90 | ≥ 4.90 | 210 to 211 | 4.30 to 4.90 | ≥ 4.90 | 4.30 to 4.90 | 4.30 to 4.90 | 4.60 to 5.00 |  | 
COc1cc2c(Oc3ccc(NS(=O)(=O)c4ccccc4OC(F)(F)F)cc3F)ccnc2cc1OCCCN1CCCCC1 [Example 78, N-{3-Fluoro-4-[6-methoxy-7-(3-piperidin-1-yl-propoxy)-quinolin-4-yloxy]-phenyl}-2-trifluoromethoxy-benzenesulfonamide] | ≥ 4.90 | ≥ 4.90 | ≥ 4.90 | 156 to 158 | ≥ 4.90 | ≥ 4.90 | ≥ 4.90 | ≥ 4.90 | ≥ 5.00 |  | 
COc1cc2c(Oc3ccc(NS(=O)(=O)c4cccc(Cl)c4F)cc3F)ccnc2cc1OCCCN1CCCC(C)C1 (centres unmarked) [Example 54, 3-Chloro-2-fluoro-N-(3-fluoro-4-{6-methoxy-7-[3-(3-methyl-piperidin-1-yl)-propoxy]-quinolin-4-yloxy}-phenyl)-benzenesulfonamide] | ≥ 4.90 | ≥ 4.90 | ≥ 4.90 | 125 to 127 | ≥ 4.90 | ≥ 4.90 | ≥ 4.90 | 4.30 to 4.90 | 4.60 to 5.00 |  | 
COc1cc2c(Oc3ccc(NS(=O)(=O)c4ccccc4C(F)(F)F)cc3F)ccnc2cc1OCCCN(C)C [Example 100, N-{4-[7-(3-Dimethylamino-propoxy)-6-methoxy-quinolin-4-yloxy]-3-fluoro-phenyl}-2-trifluoromethyl-benzenesulfonamide] | ≥ 4.90 | ≥ 4.90 | ≥ 4.90 | 89 to 91 | ≥ 4.90 | ≥ 4.90 | ≥ 4.90 | ≥ 4.90 | ≥ 5.00 | 4.30 to 4.90 | ≥ 4.90

Now from value to molecule, other results behind:

pIC50 (indicated cell line; [3]) | pIC50 (indicated cell line; [4]) | pIC50 (indicated cell line; [5]) | melting point [°C] | SMILES | pIC50 (U118) | pIC50 (Hs578T [1]) | pIC50 (A172) | pIC50 (SF126) | pIC50 (Hs578T [2]) | pIC50 (indicated cell line; Homo sapiens, C8161 cells, read-out: IC50 Wound healing Assay C8161) | pIC50 (indicated cell line; SF763 cells, read-out: IC50 Wound healing Assay SF763)
≥ 4.90 | ≥ 4.90 | 4.30 to 4.90 | 94 to 96 | COc1cc2c(Oc3ccc(NS(=O)(=O)c4ccccc4OC(F)(F)F)cc3F)ccnc2cc1OCCCN(C)C [Example 179, N-{4-[7-(3-Dimethylamino-propoxy)-6-methoxy-quinolin-4-yloxy]-3-fluoro-phenyl}-2-trifluoromethoxy-benzenesulfonamide] | ≥ 4.90 | ≥ 4.90 | ≥ 4.90 | ≥ 4.90 | 4.60 to 5.00 |  | 
≥ 4.90 | ≥ 4.90 | ≥ 4.90 | 80 to 82 | COC(=O)c1sccc1S(=O)(=O)Nc1ccc(Oc2ccnc3cc(OCCCN(C)C)c(OC)cc23)c(F)c1 [Example 184, 3-{4-[7-(3-Dimethylamino-propoxy)-6-methoxy-quinolin-4-yloxy]-3-fluoro-phenylsulfamoyl}-thiophene-2-carboxylic acid methyl ester] | ≥ 4.90 | ≥ 4.90 | ≥ 4.90 | ≥ 4.90 | 4.60 to 5.00 |  | 
≥ 4.90 | ≥ 4.90 | ≥ 4.90 | 167 to 168 | COC(=O)c1sccc1S(=O)(=O)Nc1ccc(Oc2ccnc3cc(OCCCN4CCOCC4)c(OC)cc23)c(F)c1 [Example 157, 3-{3-Fluoro-4-[6-methoxy-7-(3-morpholin-4-yl-propoxy)-quinolin-4-yloxy]-phenylsulfamoyl}-thiophene-2-carboxylic acid methyl ester] | ≥ 4.90 | ≥ 4.90 | ≥ 4.90 | ≥ 4.90 | 4.60 to 5.00 |  | 
≥ 4.90 | ≥ 4.90 | ≥ 4.90 | 125 to 127 | COc1cc2c(Oc3ccc(NS(=O)(=O)c4c(F)cccc4F)cc3F)ccnc2cc1OCCCN(C)C [Example 178, N-{4-[7-(3-Dimethylamino-propoxy)-6-methoxy-quinolin-4-yloxy]-3-fluoro-phenyl}-2,6-difluoro-benzenesulfonamide] | ≥ 4.90 | ≥ 4.90 | ≥ 4.90 | ≥ 4.90 | ≥ 5.00 |  | 
≥ 4.90 | ≥ 4.90 | ≥ 4.90 | 148 to 151 | COc1cc2c(Oc3c(Cl)cc(NS(=O)(=O)c4ccccc4C(F)(F)F)cc3Cl)ccnc2cc1OCCCN1CCC(C)CC1 [Example 210, N-(3,5-Dichloro-4-{6-methoxy-7-[3-(4-methyl-piperidin-1-yl)-propoxy]-quinolin-4-yloxy}-phenyl)-2-trifluoromethyl-benzenesulfonamide] | ≥ 4.90 | ≥ 4.90 | ≥ 4.90 | ≥ 4.90 | ≥ 5.00 |  | 
≥ 4.90 | ≥ 4.90 | ≥ 4.90 | 118 to 121 | COc1cc2c(Oc3ccc(NS(=O)(=O)c4cc(F)ccc4F)cc3Cl)ccnc2cc1OCCCN1CCN(C)CC1 [Example 112, N-(3-Chloro-4-{6-methoxy-7-[3-(4-methyl-piperazin-1-yl)-propoxy]-quinolin-4-yloxy}-phenyl)-2,5-difluoro-benzenesulfonamide] | ≥ 4.90 | ≥ 4.90 | ≥ 4.90 | ≥ 4.90 | ≥ 5.00 |  | 
≥ 4.90 | ≥ 4.90 | ≥ 4.90 | 197 to 198 | COc1cc2c(Oc3ccc(NS(=O)(=O)c4c(Cl)cccc4Cl)cc3F)ccnc2cc1OCCCN(C)C [Example 181, 2,6-Dichloro-N-{4-[7-(3-dimethylamino-propoxy)-6-methoxy-quinolin-4-yloxy]-3-fluoro-phenyl}-benzenesulfonamide] | ≥ 4.90 | ≥ 4.90 | ≥ 4.90 | ≥ 4.90 | ≥ 5.00 |  | 
